According to patent publication US20040086607A1, “Food astringency evaluating method and astringency evaluating apparatus” (SAPPORO BREWERIES LIMITED, priority 2001, published 2004):

Key:
Type in all cases: binding
gelatin [1] = assay: change in frequency with gelatin sensor (quartz oscillator with gelatin immobilized on the electrode); details: catechin 2 ppm and 6 ppm; for change in frequency: gelatin sensor in distilled water, up to 4 minutes after addition, quercetin and epicatechin 20 μM
Description: First, the gold electrode (diameter: 5 mm) of a sensor equipped with a quartz oscillator (Fragrance Sensor SF-105, product of Sogo Pharmaceutical Co., Ltd.) was immersed in 20 ml of a 1.2 N sodium hydroxide solution for 20 minutes, after which the electrode surface was washed with 500 ml of distilled water and immersed in 1.2 N dilute hydrochloric acid for 2 minutes. The electrode surface was then washed with distilled water and immersed in 12 N concentrated hydrochloric acid for 5 minutes, and the electrode was subsequently washed thoroughly with distilled water and dried at 100° C. for 20 minutes to obtain a quartz oscillator having hydroxyl groups arranged on the electrode surface.
After air-cooling the quartz oscillator, it was immersed in 0.3 ml of a 2% 3-aminopropyltriethoxysilane/acetone solution and allowed to stand at room temperature for 20 hours to introduce amino groups on to the electrode surface. The quartz oscillator was then subjected to ultrasonic washing treatment in 20 ml of acetone and dried at 70° C. for 90 minutes.
Next, 30 μl of 2.5% glutaraldehyde/20 mM phosphate buffer solution (pH 7.0) was placed on the amino group-introduced electrode surface, and the electrode was allowed to stand at room temperature for 2 hours. After then washing the electrode surface in 20 ml of 20 mM phosphate buffer solution and 20 ml of distilled water, it was mounted on an aqueous phase measuring sensor. […]
First, the sensor element measuring section of the gelatin sensor was immersed for 30 seconds in 100 ml of distilled water, and stabilization of frequency was confirmed. Next, 0.1 ml of a catechin/ethanol solution was added to the distilled water, and the change in frequency was measured up to 4 minutes after addition. […]
The change in frequency was also measured in the same manner as above except that quercetin/ethanol solutions and epicatechin/ethanol solutions were used instead of the catechin/ethanol solutions, and the astringency component concentration after addition to the distilled water was adjusted to 20 μM. […]

[2] = test system: mouse proline-rich peptide; assay: change in frequency with lipid membrane sensor, complex with mouse proline-rich peptide; details: FIG. 9
Text: (§1) The electrode of a sensor equipped with a quartz oscillator (Fragrance Sensor SF-105, product of Sogo Pharmaceutical Co., Ltd.) was coated with a lipid membrane composed of dioctadecylammonium polystyrenesulfonic acid to obtain a lipid membrane sensor.
The obtained astringency evaluating apparatus was used for measurement of the change in frequency corresponding to adsorption on to the lipid membrane by complex between proline-rich peptide and tannic acid.
First, the sensor element measuring section of the lipid membrane sensor was immersed in a 25 mM acetate buffer solution (pH 4.3) dissolving 50, 100 or 150 mg/l of mouse proline-rich peptide (Sawady Technologies), and stabilization of frequency was confirmed. Next, 0.1 ml of tannic acid was added to each mouse proline-rich peptide/acetate buffer solution, and the change in frequency was measured up to 5 minutes after addition. For the measurement, the tannic acid concentration of the buffer solution immediately after tannic acid addition was 8 mg/l.

bovine serum albumin = biological target: T1, bovine serum albumin (Bos taurus, UniProt P02769); assay: change in frequency with lipid membrane sensor, complex with bovine serum albumin; details: bovine serum albumin in acetate buffer, 4 minutes after adding, tannic acid 8 mg/l, polyphenone 100 50 mg/l, FIG. 11
T1 construct: purchased Wako Junyaku Kogyo
Description: as §1
The change in frequency was also measured in the same manner as above except that gelatin (Aldrich Chemical Company, Inc.) or bovine serum albumin (Wako Junyaku Kogyo) was used instead of the mouse proline-rich peptide, and tannic acid (concentration after addition to buffer solution [hereunder referred to simply as “concentration in buffer solution”]: 8 mg/l, and polyphenone 100 (concentration in buffer solution: 50 mg/l) were added. As comparative tests, the same measurement was conducted using sucrose (sweet component, concentration in buffer solution: 1.7 mM), quinine sulfate (bitter component, concentration in buffer solution: 0.27 μM), tartaric acid (acidic component, concentration in buffer solution: 14 μM), NaCl (salty component, concentration in buffer solution: 1.1 mM) and glutamic acid (acidic/savory component, concentration in buffer solution: 30 μM). Also, the change in frequency during 4 minutes after adding different components using bovine serum albumin is shown in FIG. 11.

gelatin [3] = assay: change in frequency with lipid membrane sensor, complex with gelatin
Description: as §1
The change in frequency was also measured in the same manner as above except that gelatin (Aldrich Chemical Company, Inc.) or bovine serum albumin (Wako Junyaku Kogyo) was used instead of the mouse proline-rich peptide, and tannic acid (concentration after addition to buffer solution [hereunder referred to simply as “concentration in buffer solution”]: 8 mg/l, and polyphenone 100 (concentration in buffer solution: 50 mg/l) were added. As comparative tests, the same measurement was conducted using sucrose (sweet component, concentration in buffer solution: 1.7 mM), quinine sulfate (bitter component, concentration in buffer solution: 0.27 μM), tartaric acid (acidic component, concentration in buffer solution: 14 μM), NaCl (salty component, concentration in buffer solution: 1.1 mM) and glutamic acid (acidic/savory component, concentration in buffer solution: 30 μM). Also, the change in frequency during 4 minutes after adding different components using bovine serum albumin is shown in FIG. 11. […]

T1 sequence (P02769 25-607): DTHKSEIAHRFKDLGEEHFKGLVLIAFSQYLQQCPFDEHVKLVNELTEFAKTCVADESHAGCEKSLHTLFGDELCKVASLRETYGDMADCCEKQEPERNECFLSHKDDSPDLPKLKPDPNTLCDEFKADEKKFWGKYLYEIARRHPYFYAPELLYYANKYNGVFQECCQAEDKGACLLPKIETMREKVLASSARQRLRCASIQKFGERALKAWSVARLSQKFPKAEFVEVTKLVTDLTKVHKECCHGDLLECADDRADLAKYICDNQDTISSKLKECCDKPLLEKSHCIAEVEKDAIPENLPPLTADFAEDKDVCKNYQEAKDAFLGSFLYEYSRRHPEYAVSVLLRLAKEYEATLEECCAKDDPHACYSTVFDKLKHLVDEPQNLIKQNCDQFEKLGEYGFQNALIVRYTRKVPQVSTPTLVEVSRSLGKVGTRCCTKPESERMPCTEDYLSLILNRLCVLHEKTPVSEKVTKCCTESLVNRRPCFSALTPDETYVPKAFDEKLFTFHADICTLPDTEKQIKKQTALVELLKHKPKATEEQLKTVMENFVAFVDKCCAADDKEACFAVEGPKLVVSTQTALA

| Molecule | change in frequency (gelatin [1]) | change in frequency ([2]; 25 mM acetate buffer pH 4.3, mouse proline-rich peptide 50, 100 or 150 mg/l, tannic acid 8 mg/l, up to 5 minutes) | change in frequency versus concentration ([2]; mouse proline-rich peptide) | change in frequency (bovine serum albumin) | correlation between tannic acid concentration and change in frequency (gelatin [3]; 10 mg/l gelatin/25 mM acetate buffer solution, FIG. 12) | change in frequency (gelatin [3]; gelatin in acetate buffer, 4 minutes after adding, tannic acid 8 mg/l, polyphenone 100 50 mg/l, FIG. 10) | change in frequency versus catechin concentration (gelatin [1]; gelatin sensor, FIG. 5) |
| --- | --- | --- | --- | --- | --- | --- | --- |
| O=c1c(O)c(-c2ccc(O)c(O)c2)oc2cc(O)cc(O)c12 [quercetin] | notable change in frequency |  |  |  |  |  |  |
| O=C(OC[C@H]1O[C@@H](OC(=O)c2cc(O)c(O)c(OC(=O)c3cc(O)c(O)c(O)c3)c2)[C@H](OC(=O)c2cc(O)c(O)c(OC(=O)c3cc(O)c(O)c(O)c3)c2)[C@@H](OC(=O)c2cc(O)c(O)c(OC(=O)c3cc(O)c(O)c(O)c3)c2)[C@@H]1OC(=O)c1cc(O)c(O)c(OC(=O)c2cc(O)c(O)c(O)c2)c1)c1cc(O)c(O)c(OC(=O)c2cc(O)c(O)c(O)c2)c1 [tannic acid] |  | notable change in frequency | greater with increasing tannic acid concentration | notable change in frequency | adequately satisfactory correlation | notable change in frequency |  |
| catechin | notable change in frequency |  |  |  |  |  | greater with increasing catechin concentration |
